Columns and labels:
patients with HE [1] = experiment: Retrospective chart review of 145 patients with HE, lactulose then rifaximin; assay type: in vivo, human
Description: Total number of hospitalizations, duration of hospitalizations, HE endpoints, and cost of therapy were compared between the 2 treatment regimens.

[2] = tested on: liver transplant patients with HE; experiment: Chart review of 39 liver transplant patients with HE Conn scores of 2; assay type: in vivo, human; details: 24 lactulose, 15 rifaximin
patients with HE [3] = details: 6-month study; rifaximin 1200 mg/day, neomycin 3 g/day; 14 days on, 14 days off per month; cited from earlier work

Compound	patients with Conn scores of 3 or 4 at end of treatment period (patients with HE [1])	hospitalizations reported for the group [2]	efficacy in patients with HE, rifaximin versus neomycin (patients with HE [3])
OC[C@H]1O[C@@H](O[C@@H]2[C@@H](CO)OC(O)(CO)[C@H]2O)[C@H](O)[C@@H](O)[C@H]1O (mixture of isomers) [lactulose]	25%	Nineteen	–
neomycin	–	–	comparable efficacy
